# From PubChem BioAssay AID310 (DTP/NCI, 2004)
# Where “and” joins values, the source holds several entries; their conditions need not be identical. Identical values can stand only once. Records with an inconclusive call do not appear.
# System: C3AKF1 mice, osteogenic sarcoma HE10734 s.c., tumor weight T/C
# Assay: NCI In Vivo Anticancer Drug Screen. Data for tumor model Osteogenic Sarcoma HE 10734 (subcutaneous) in C3AKF1 (CHKRF1) mice
# Conditions: endpoint: mean tumor weight, schedule: Q01DX010 (ip), higher = larger tumour
# Method: The antitumor activity of compounds was measured in mice bearing transplantable tumors. Survival or tumor size were measured and the results are expressed as the measurement made in the treated group (T) divided by the measurement made in the vehicle treated control group (C). The tumor model used in this assay is Osteogenic Sarcoma HE 10734 (subcutaneous) in C3AKF1 (CHKRF1) mice
# [1] = dose: 25.0 mg/kg/injection, vehicle: carboxymethylcellulose (CMC)
# [2] = dose: 10.0 mg/kg/injection, vehicle: carboxymethylcellulose (CMC)
# [3] = dose: 16.0 mg/kg/injection, vehicle: carboxymethylcellulose (CMC)
# [4] = dose: 200.0 mg/kg/injection, vehicle: carboxymethylcellulose (CMC)
# [5] = dose: 2.5 mg/kg/injection, vehicle: carboxymethylcellulose (CMC)
# [6] = dose: 8.0 mg/kg/injection, vehicle: carboxymethylcellulose (CMC)
# [7] = dose: 25.0 mg/kg/injection, vehicle: saline
# [8] = dose: 50.0 mg/kg/injection, vehicle: saline
# [9] = dose: 100.0 mg/kg/injection, vehicle: saline
# [10] = dose: 125.0 mg/kg/injection, vehicle: saline
# [11] = dose: 55.0 mg/kg/injection, vehicle: carboxymethylcellulose (CMC)
# [12] = dose: 250.0 mg/kg/injection, vehicle: saline
# [13] = dose: 500.0 mg/kg/injection, vehicle: saline
smiles,measurement,setting,value
Cc1ccc(N2CCN(CCCN3CCN(c4ccc(Cl)cc4)CC3)CC2)cc1,T/C,"dose: 6.25 mg/kg/injection, vehicle: carboxymethylcellulose (CMC)",97 % of control
same,T/C,"dose: 12.5 mg/kg/injection, vehicle: carboxymethylcellulose (CMC)",77 % of control
same,T/C,[1],102 % of control
CC1(C)N=C(N)N=C(N)N1c1cccc(Br)c1,T/C,"dose: 4.4 mg/kg/injection, vehicle: carboxymethylcellulose (CMC)",89 % of control
same,T/C,"dose: 6.6 mg/kg/injection, vehicle: carboxymethylcellulose (CMC)",102 % of control
same,T/C,[2],50 % of control and 51 % of control
NC(CCSCc1ccc(N(CCCl)CCCl)cc1)C(=O)O (configuration not stated),T/C,"dose: 4.5 mg/kg/injection, vehicle: saline",74 % of control
same,T/C,"dose: 9.0 mg/kg/injection, vehicle: saline",105 % of control and 118 % of control
same,T/C,"dose: 54.0 mg/kg/injection, vehicle: saline",39 % of control
Nc1nc(N)c(N=O)c(Nc2ccc(Br)cc2)n1,T/C,"dose: 22.0 mg/kg/injection, vehicle: carboxymethylcellulose (CMC)",94 % of control
same,T/C,"dose: 44.0 mg/kg/injection, vehicle: carboxymethylcellulose (CMC)",66 % of control
same,T/C,"dose: 88.0 mg/kg/injection, vehicle: carboxymethylcellulose (CMC)",62 % of control
same,T/C,"dose: 175.0 mg/kg/injection, vehicle: carboxymethylcellulose (CMC)",58 % of control and 61 % of control
same,T/C,"dose: 265.0 mg/kg/injection, vehicle: carboxymethylcellulose (CMC)",33 % of control
same,T/C,"dose: 395.0 mg/kg/injection, vehicle: carboxymethylcellulose (CMC)",34 % of control
CN(N=O)C(N)=O,T/C,[2],47 % of control and 55 % of control
same,T/C,[3],34 % of control and 39 % of control
same,T/C,[1],38 % of control
CCCC(=O)NC1=C(N2CC2)C(=O)C(NC(=O)CCC)=C(N2CC2)C1=O,T/C,"dose: 0.5 mg/kg/injection, vehicle: saline",104 % of control
same,T/C,"dose: 0.75 mg/kg/injection, vehicle: saline",72 % of control
same,T/C,"dose: 1.1 mg/kg/injection, vehicle: saline",83 % of control
same,T/C,"dose: 1.7 mg/kg/injection, vehicle: saline",47 % of control and 60 % of control
CCCn1cnc2c(SCc3ccccc3Cl)nc(N)nc21,T/C,"dose: 100.0 mg/kg/injection, vehicle: carboxymethylcellulose (CMC)",86 % of control
same,T/C,[4],87 % of control
same,T/C,"dose: 400.0 mg/kg/injection, vehicle: carboxymethylcellulose (CMC)",55 % of control
c1cc2n(n1)CCN2,T/C,"dose: 30.0 mg/kg/injection, vehicle: saline",100 % of control
same,T/C,"dose: 60.0 mg/kg/injection, vehicle: saline",68 % of control
same,T/C,"dose: 120.0 mg/kg/injection, vehicle: saline",40 % of control
NC(=O)c1ccc(NC(=O)CCC(=O)Nc2ccc(C(N)=O)cn2)nc1,T/C,"dose: 0.66 mg/kg/injection, vehicle: carboxymethylcellulose (CMC)",118 % of control and 120 % of control
same,T/C,[5],67 % of control
CSc1ncnc2c1ncn2C1CCCO1 (configuration not stated),T/C,"dose: 20.0 mg/kg/injection, vehicle: saline",76 % of control
same,T/C,"dose: 40.0 mg/kg/injection, vehicle: saline",83 % of control
same,T/C,"dose: 160.0 mg/kg/injection, vehicle: saline",44 % of control
CCOc1ccc(Nc2ncnc3nc[nH]c23)cc1CN(CCCl)CCCl,T/C,"dose: 1.0 mg/kg/injection, vehicle: carboxymethylcellulose (CMC)",86 % of control
same,T/C,"dose: 4.0 mg/kg/injection, vehicle: carboxymethylcellulose (CMC)",94 % of control
same,T/C,[6],83 % of control and 95 % of control
S=c1nc[nH]c2c1ncn2C1CCCO1 (configuration not stated),T/C,"dose: 12.0 mg/kg/injection, vehicle: saline",84 % of control
same,T/C,[7],85 % of control
same,T/C,[8],62 % of control
same,T/C,[9],30 % of control and 33 % of control
CC(C)CCSc1nc(N)nc2nc[nH]c12,T/C,"dose: 62.0 mg/kg/injection, vehicle: saline",64 % of control
same,T/C,[10],75 % of control
CC(C)([NH-])CO.CC(C)([NH-])CO.[Cl][Cd][Cl],T/C,[5],88 % of control
same,T/C,"dose: 5.0 mg/kg/injection, vehicle: carboxymethylcellulose (CMC)",57 % of control
same,T/C,[2],25 % of control
O=C(O)c1ccc(-c2ccccc2)cc1,T/C,[4],70 % of control
NC1(C(=O)O)CCCC1,T/C,"dose: 15.0 mg/kg/injection, vehicle: saline",109 % of control
same,T/C,"dose: 23.0 mg/kg/injection, vehicle: saline",46 % of control
same,T/C,"dose: 35.0 mg/kg/injection, vehicle: saline",77 % of control
same,T/C,[11],30 % of control and 42 % of control
same,T/C,"dose: 55.0 mg/kg/injection, vehicle: saline",46 % of control
same,T/C,"dose: 85.0 mg/kg/injection, vehicle: carboxymethylcellulose (CMC)",27 % of control and 45 % of control
CCC(=O)NC1=C(N2CC2)C(=O)C(NC(=O)CC)=C(N2CC2)C1=O,T/C,"dose: 0.26 mg/kg/injection, vehicle: saline",118 % of control
same,T/C,"dose: 0.4 mg/kg/injection, vehicle: saline",77 % of control
same,T/C,"dose: 1.2 mg/kg/injection, vehicle: saline",30 % of control
CCCCn1cnc2c(=S)nc(N)[nH]c21,T/C,"dose: 3.0 mg/kg/injection, vehicle: saline",49 % of control
same,T/C,"dose: 6.0 mg/kg/injection, vehicle: saline",51 % of control
same,T/C,"dose: 11.0 mg/kg/injection, vehicle: saline",29 % of control
same,T/C,"dose: 22.0 mg/kg/injection, vehicle: saline",7 % of control
C/C=C1\CN(C)[C@H]2Cc3c([nH]c4ccccc34)[C@@H](c3cc4[nH]c5c(c4cc3OC)CCN3C[C@H]4C[C@H](CC)[C@H]3[C@@]5(C(=O)OC)C4)C[C@H]1C2C(=O)OC (some centres not stated),T/C,"dose: 20.0 mg/kg/injection, vehicle: water",49 % of control
ClCCn1cnc2c(SCc3ccccc3)ncnc21,T/C,[7],75 % of control
same,T/C,[8],64 % of control
same,T/C,[9],56 % of control
same,T/C,"dose: 300.0 mg/kg/injection, vehicle: saline",69 % of control
same,T/C,"dose: 450.0 mg/kg/injection, vehicle: saline",65 % of control
CCCCCCC(=O)NC1=C(N2CC2)C(=O)C(NC(=O)CCCCCC)=C(N2CC2)C1=O,T/C,"dose: 15.0 mg/kg/injection, vehicle: carboxymethylcellulose (CMC)",104 % of control
same,T/C,"dose: 30.0 mg/kg/injection, vehicle: carboxymethylcellulose (CMC)",83 % of control
same,T/C,"dose: 60.0 mg/kg/injection, vehicle: carboxymethylcellulose (CMC)",50 % of control
same,T/C,"dose: 120.0 mg/kg/injection, vehicle: carboxymethylcellulose (CMC)",33 % of control
CS(=O)(=O)OCC(O)C(O)COS(C)(=O)=O (configuration not stated),T/C,[10],121 % of control
same,T/C,[12],111 % of control
same,T/C,[13],81 % of control
same,T/C,"dose: 1000.0 mg/kg/injection, vehicle: saline",101 % of control
CS(=O)(=O)OCCCCCCCCCOS(C)(=O)=O,T/C,[6],81 % of control
same,T/C,[3],81 % of control
same,T/C,"dose: 28.0 mg/kg/injection, vehicle: carboxymethylcellulose (CMC)",57 % of control
same,T/C,[11],37 % of control
O=C(NO)c1ccncc1,T/C,[10],113 % of control
same,T/C,[12],123 % of control
same,T/C,[13],102 % of control
O=S1(=O)CCCO1,T/C,"dose: 40.0 mg/kg/injection, vehicle: carboxymethylcellulose (CMC)",75 % of control
same,T/C,"dose: 80.0 mg/kg/injection, vehicle: carboxymethylcellulose (CMC)",76 % of control
